Assay results reported in patent US12396949B2, “Technology for improving properties of lipid nanoparticles using lipids in which cis-unsaturated bonds are substituted with a silicon atom” (The Regents of the University of California, priority 2022, dated 2025).
Values joined by “and” are separate entries in the source; they are usually repeats but may differ in a detail not shown here. Equal values may be shown once.

What was measured:
Type in all cases: physicochemical
[1] = Average size of liposomes made from cationic silyl lipids (Tables 1A, 1B); details: for Avg size: Table 1B, sila-DOTMA analog liposomes; for Avg. Size: Table 1A, liposome formulations of the cationic silyl lipid only in Milli Q purified water
Source text: (§1) For colloidal dispersions, zeta potential is a useful measurement of the difference in electrokinetic potential between the dispersion medium and the stationary layer of fluid attached to the dispersed particle. The magnitude of the zeta potential indicates the degree of electrostatic repulsion between adjacent, similarly charged particles in a dispersion. A high zeta potential is an indicator of stability (resistance to aggregation). Both zeta potential and size can be determined using a zeta Potential Analyzer. Clogston J D et al., Methods Mol Biol. 2011; 697:63-70.
(§2) FIGS. 5A to 5C and TABLE 1A provide an illustration of such empirical determination: the effect of the length of the lipid tail, the end group, and the positioning of the silyl group. In this illustration, other properties of the lipid structure and liposome composition were kept constant. The liposome formulations just contained the cationic silyl lipids indicated, and Milli Q™ purified water.
(§3) FIGS. 7A to 7C and TABLE 1B provide another illustration of how structure of the silyl lipid can affect properties of nanoparticles.
(§4) Structural features such as tail length, positioning of the silicon group (n1, n2), and branching (as in 8,Si, (8)3-DOTMA) can influence liposome properties.

[2] = Average zeta potential of liposomes made from cationic silyl lipids (Tables 1A, 1B)
Source text: as §1, §2, §3, §4

[3] = Liposome size by intensity, dynamic light scattering (silyl-DOTAP liposomes); details: for size (size by intensity, average ± standard deviation): three liposome solutions, thin film hydration/bath sonication, all trials; for size (size by intensity, average ± standard deviation) / size by intensity when excluding large aggregate/outlier: 1 mg/mL in Milli Q water; for size (size by intensity, average ± standard deviation) / size by intensity when excluding large aggregate/outlier / large aggregate/outlier in size by intensity distribution of one trial: DLS; for size by intensity when excluding large aggregate/outlier: outlier trial peak excluded; for large aggregate/outlier in size by intensity distribution of one trial: one of three trials; for average LNP size compared with DOTAP: comparison in words
Description: (§5) FIGS. 8A, 8B, and 8C show the measured size, zeta potential, and RNA encapsulation efficiency (EE) of lipid nanoparticles (LNPs) containing silyl-DOTAP lipids, compared with traditional DOTAP-derived LNPs. The data in FIG. 8A were obtained from three liposome solutions, whereupon the average size was determined using dynamic light scattering (DLS). The data in FIG. 8B were obtained from three liposome solutions, whereupon the average zeta potential was determined using dynamic light scattering (DLS). The data in FIG. 8C represent RNA encapsulation efficiency, determined for each lipid using the Quant-It RiboGreen fluorescence assay.
(§6) FIGS. 8A, 8B, and 8C provide an analysis of size, zeta potential, and RNA encapsulation efficiency (EE) of lipid nanoparticles (LNPs) composed of silyl-DOTAP lipids, compared with traditional DOTAP-derived LNPs. The data in FIG. 8A were obtained from three liposome solutions (1 mg/mL in Milli Q water) for each lipid, which were formed via thin film hydration/bath sonication and the average size by intensity was determined using dynamic light scattering (DLS). The data in FIG. 8B were obtained from three liposome solutions (1 mg/mL in Milli Q water) for each lipid, which were formed via thin film hydration/bath sonication and the average zeta potential was determined using dynamic light scattering (DLS).
(§7) The values shown are the average standard deviation size by intensity, zeta potential, and RNA EE shown in FIGS. 8A to 8C for each lipid. Footnotes: a: One trial corresponds to one liposome solution (1 mg/ml). […] DOTAP is 198 nm and 8SiPh is 183±65 nm when excluding this large aggregate/outlier.

[4] = Liposome zeta potential, dynamic light scattering (silyl-DOTAP liposomes); details: three liposome solutions, 1 mg/mL in Milli Q water, DLS
Description: as §5, §6, §7

RNA standard = assay: RNA encapsulation efficiency, Quant-It RiboGreen fluorescence assay; details: for RNA EE (RNA encapsulation efficiency): RNA-lipid complex 10:1 wt/wt lipid/RNA, 15 min room temperature, three aliquots; for RNA EE compared with DOTAP: comparison in words
Description: as §5
The data in FIG. 8C represent RNA encapsulation efficiency. One RNA-lipid complex solution (10:1 wt/wt lipid/RNA) was formed for each lipid by incubating the silyl liposomes with RNA standard at room temperature for fifteen minutes. The average RNA EE of three aliquots of RNA-lipid complex solution was determined for each lipid using the Quant-It RiboGreen fluorescence assay.
as §7

[5] = Table 1B, sila-DOTMA analog liposomes, two values given
[6] = Table 1A, liposome formulations of the cationic silyl lipid only in Milli Q purified water

Row | Structure (SMILES) | size (size by intensity, average ± standard deviation) [3] | zeta (average zeta potential ± standard deviation) [4] | RNA EE (RNA encapsulation efficiency) (RNA standard) | also measured
1 | C[N+](C)(C)CC(COCCCCCCCC[Si](C)(C)c1ccccc1)OCCCCCCCC[Si](C)(C)c1ccccc1 (stereo not shown) [8, Si, Ph-DOTMA] | – | – | – | Avg size [1]: 215 nm; Avg. zeta Potential [2, 5]: 62 mV
2 | CCCC[Si](C)(C)CCCCCCCC(=O)OCC(C[N+](C)(C)C)OC(=O)CCCCCCC[Si](C)(C)CCCC (stereo not shown) [8Si4] | 198 nm | 70 ± 2 mV | 44 ± 7% | –
3 | C[N+](C)(C)CC(COC(=O)CCCCCCC[Si](C)(C)c1ccccc1)OC(=O)CCCCCCC[Si](C)(C)c1ccccc1 (stereo not shown) [8SiPh] | 397 ± 322 nm | 75 ± 6 mV | 36 ± 5% | size by intensity when excluding large aggregate/outlier [3]: 183±65 nm; large aggregate/outlier in size by intensity distribution of one trial [3]: 1406 nm
4 | CCCCCC[Si](C)(C)CCCCCCCC(=O)OCC(C[N+](C)(C)C)OC(=O)CCCCCCC[Si](C)(C)CCCCCC (stereo not shown) [8Si6] | 164 ± 36 nm | 84 ± 5 mV | 48 ± 1% | –
5 | C[N+](C)(C)CC(COC(=O)CCCCCCC[Si](C)(C)C1CCCCC1)OC(=O)CCCCCCC[Si](C)(C)C1CCCCC1 (stereo not shown) [8SiCy] | 199 ± 30 nm | 70 ± 3 mV | 49 ± 4% | –
6 | CCCC[Si](C)(C)CCCCC(=O)OCC(C[N+](C)(C)C)OC(=O)CCCC[Si](C)(C)CCCC (stereo not shown) [QP5Si4] | – | – | – | Avg. Size [1]: 21 nm; Avg. zeta Potential [2, 6]: 65 mV
7 | C[N+](C)(C)CC(COC(=O)CCCCCCC[Si](C)(C)C1CCCCC1)OC(=O)CCCCCCC[Si](C)(C)C1CCCCC1 (stereo not shown) [QP8SiCy] | – | – | – | Avg. Size [1]: 29 nm; Avg. zeta Potential [2, 6]: 57 mV and 71 mV
8 | CCCCCCCC/C=C\CCCCCCCC(=O)OCC(C[N+](C)(C)C)OC(=O)CCCCCCC/C=C\CCCCCCCC.[Cl-] (stereo not shown) [DOTAP, N-(1-(2,3-dioleoyloxy)propyl)-N,N,N-trimethylammonium chloride, reference compound] | 314 ± 201 nm | 34 ± 5 mV | 65 ± 2% | size by intensity when excluding large aggregate/outlier [3]: 198 nm; large aggregate/outlier in size by intensity distribution of one trial [3]: 838.3 nm
9 | CCCCCCCCC[Si](C)(C)CCCCCCC(=O)OCC(C[N+](C)(C)C)OC(=O)CCCCCC[Si](C)(C)CCCCCCCCC (stereo not shown) [7Si9] | 221 ± 40 nm | 73 ± 4 mV | 59 ± 1% | –
10 | CCCCCC[Si](C)(C)CCCCCCCC(=O)OCC(C[N+](C)(C)C)OC(=O)CCCCCCC[Si](C)(C)CCCCCC (stereo not shown) [QP8Si6] | – | – | – | Avg. Size [1]: 38 nm; Avg. zeta Potential [2, 6]: 62 mV
11 | C[N+](C)(C)CC(COC(=O)CCCC[Si](C)(C)c1ccccc1)OC(=O)CCCC[Si](C)(C)c1ccccc1 (stereo not shown) [5SiPh] | 226 ± 75 nm | 77 ± 6 mV | 88 ± 9% | RNA EE compared with DOTAP (RNA standard): higher EE than DOTAP
12 | CCCCCCCC[Si](C)(C)CCCCCCCC(=O)OCC(C[N+](C)(C)C)OC(=O)CCCCCCC[Si](C)(C)CCCCCCCC (stereo not shown) [QP8Si8] | – | – | – | Avg. Size [1]: 38 nm; Avg. zeta Potential [2, 6]: 67 mV
13 | CCCCCCCC[Si](CCCCCCCC)(CCCCCCCC)CCCCCCCCOCC(C[N+](C)(C)C)OCCCCCCCC[Si](CCCCCCCC)(CCCCCCCC)CCCCCCCC (stereo not shown) [8, Si, (8)3-DOTMA] | – | – | – | Avg size [1]: 184 nm; Avg. zeta Potential [2, 5]: 64 mV
14 | CCCCCCCCC[Si](C)(C)CCCCCCC(=O)OCC(C[N+](C)(C)C)OC(=O)CCCCCC[Si](C)(C)CCCCCCCCC (stereo not shown) [QP7Si9] | – | – | – | Avg. Size [1]: 59 nm; Avg. zeta Potential [2, 6]: 74 mV
15 | C[N+](C)(C)CC(COC(=O)CCCC[Si](C)(C)C1CCCCC1)OC(=O)CCCC[Si](C)(C)C1CCCCC1 (stereo not shown) [QP5SiCy] | – | – | – | Avg. Size [1]: 80 nm; Avg. zeta Potential [2, 6]: 71 mV and 124 mV
16 | C[N+](C)(C)CC(COC(=O)CCCC[Si](C)(C)c1ccccc1)OC(=O)CCCC[Si](C)(C)c1ccccc1 (stereo not shown) [QP5SiPh] | – | – | – | Avg. Size [1]: 80 nm; Avg. zeta Potential [2, 6]: 62 mV
17 | CCCCCCCC[Si](C)(C)CCCCC(=O)OCC(C[N+](C)(C)C)OC(=O)CCCC[Si](C)(C)CCCCCCCC (stereo not shown) [QP5Si8] | – | – | – | Avg. Size [1]: 38 nm; Avg. zeta Potential [2, 6]: 69 mV and 112 mV
18 | C[N+](C)(C)CC(COC(=O)CCCC[Si](C)(C)CCc1ccccc1)OC(=O)CCCC[Si](C)(C)CCc1ccccc1 (stereo not shown) [5Si2Ph] | 198 nm | 76 ± 2 mV | 55 ± 4% | –
19 | CCCCCCCC[Si](C)(C)CCCCCCCC(=O)OCC(C[N+](C)(C)C)OC(=O)CCCCCCC[Si](C)(C)CCCCCCCC (stereo not shown) [8Si8] | 221 ± 40 nm | 73 ± 15 mV | 50 ± 7% | RNA EE compared with DOTAP (RNA standard): comparable RNA EEs to DOTAP
20 | C[N+](C)(C)CC(COC(=O)CCCCC[Si](C)(C)c1ccccc1)OC(=O)CCCCC[Si](C)(C)c1ccccc1 (stereo not shown) [6SiPh] | 448 ± 110 nm | 81 ± 3 mV | 76 ± 1% | average LNP size compared with DOTAP [3]: noticeably larger average sizes than DOTAP; RNA EE compared with DOTAP (RNA standard): higher EE than DOTAP
21 | C[N+](C)(C)CC(COC(=O)CCCCCCC[Si](C)(C)CCc1ccccc1)OC(=O)CCCCCCC[Si](C)(C)CCc1ccccc1 (stereo not shown) [8Si2Ph] | 275 ± 82 nm | 61 ± 12 mV | 56 ± 10% | –
22 | CCCCCCCCCCC[Si](C)(C)CCCCC(=O)OCC(C[N+](C)(C)C)OC(=O)CCCC[Si](C)(C)CCCCCCCCCCC (stereo not shown) [5Si11] | 225 ± 24 nm | 0 mV and 0 ± 0.05 mV | – | RNA EE compared with DOTAP (RNA standard): comparable RNA EEs to DOTAP
23 | CCCC[Si](C)(C)CCCCCC(=O)OCC(C[N+](C)(C)C)OC(=O)CCCCC[Si](C)(C)CCCC (stereo not shown) [6Si4] | 372 ± 93 nm | 91 ± 9 mV | 41 ± 6% | average LNP size compared with DOTAP [3]: noticeably larger average sizes than DOTAP
24 | C[N+](C)(C)CC(COC(=O)CCCC[Si](C)(C)CCCc1ccccc1)OC(=O)CCCC[Si](C)(C)CCCc1ccccc1 (stereo not shown) [5Si3Ph] | 208 ± 19 nm | 78 ± 3 mV | 55 ± 3% | –
25 | C[N+](C)(C)CC(COC(=O)CCCCC[Si](C)(C)C1CCCCC1)OC(=O)CCCCC[Si](C)(C)C1CCCCC1 (stereo not shown) [6SiCy] | 188 ± 16 nm | 77 ± 5 mV | 23 ± 0.2% | –
26 | CCCCCCCC[Si](C)(C)CCCCC(=O)OCC(C[N+](C)(C)C)OC(=O)CCCC[Si](C)(C)CCCCCCCC (stereo not shown) [5Si8] | 171 ± 26 nm | 63 ± 14 mV | 74 ± 6% | RNA EE compared with DOTAP (RNA standard): higher EE than DOTAP
27 | C[N+](C)(C)CC(COC(=O)CCCCCCC[Si](C)(C)CCCc1ccccc1)OC(=O)CCCCCCC[Si](C)(C)CCCc1ccccc1 (stereo not shown) [8Si3Ph] | 106 ± 35 nm | 91 ± 6 mV | 53 ± 8% | –
28 | C[N+](C)(C)CC(COC(=O)CCCC[Si](C)(C)C1CCCCC1)OC(=O)CCCC[Si](C)(C)C1CCCCC1 (stereo not shown) [5SiCy] | 169 ± 1 nm | 88 ± 5 mV | 85 ± 4% | RNA EE compared with DOTAP (RNA standard): higher EE than DOTAP
